Source: ChEMBL document CHEMBL1123962, “Chemical aspects of metoprolol metabolism. Asymmetric synthesis and absolute configuration of the 3-[4-(1-hydroxy-2-methoxyethyl)phenoxy]-1-(isopropylamino)-2-propanols , the diastereomeric benzylic hydroxylation metabolites” (J Med Chem, 1988)

Tests used:
Rattus norvegicus [1] = organism: Rattus norvegicus; experiment: Stereoselectivity in presence of rat liver microsomes; assay type: functional
Rattus norvegicus [2] = organism: Rattus norvegicus; experiment: Product stereoselectivity in presence of rat liver microsomes; assay type: functional

SMILES | Activity (Rattus norvegicus [1]) | Activity (Rattus norvegicus [2])
COCCc1ccc(OCC(O)CNC(C)C)cc1 (racemic) | 93.2% | 
COCCc1ccc(OC[C@H](O)CNC(C)C)cc1 | 90.4% | 
COCCc1ccc(OC[C@@H](O)CNC(C)C)cc1 |  | 96.3%
